The CheMixHub viscosity set

Test: xn = mol fraction of the nth substance listed

CCCCCCCCc1ccccc1 + CCCCCCCCCCCCCCCC
viscosity [mPa·s], 102 kPa
Conditions | x1 = 0.1177 | x1 = 0.2297 | x1 = 0.3377 | x1 = 0.4423 | x1 = 0.5431 | x1 = 0.6411 | x1 = 0.7351 | x1 = 0.8263 | x1 = 0.9146
293.15 K | 3.28 | 3.16 | 3.05 | 2.94 | 2.85 | 2.78 | 2.71 | 2.65 | 2.62
303.15 K | 2.61 | 2.52 | 2.44 | 2.36 | 2.3 | 2.25 | 2.19 | 2.15 | 2.12
313.15 K | 2.13 | 2.06 | 2 | 1.94 | 1.89 | 1.86 | 1.81 | 1.78 | 1.76
323.15 K | 1.77 | 1.72 | 1.67 | 1.63 | 1.59 | 1.56 | 1.52 | 1.5 | 1.48

FCC(F)(F)F + FCF
viscosity [mPa·s], 101 kPa
Conditions | x1 = 0.245 | x1 = 0.518 | x1 = 0.756
298.15 K | 0.1241 | 0.1379 | 0.1592
313.15 K | 0.1031 | 0.1152 | 0.129

C[N+](C)(C)CCO.O=C([O-])CCCC[C@@H]1SC[C@@H]2NC(=O)N[C@@H]21 + O
viscosity [mPa·s], 100 kPa
Conditions | x1 = 0.0009415 | x1 = 0.001329 | x1 = 0.001899 | x1 = 0.002797 | x1 = 0.003833 | x1 = 0.005474
293.15 K | 1.044 | 1.058 | 1.079 | 1.111 | 1.146 | 1.2
298.15 K | 0.927 | 0.939 | 0.957 | 0.984 | 1.014 | 1.06
303.15 K | 0.829 | 0.84 | 0.855 | 0.879 | 0.905 | 0.944
308.15 K | 0.747 | 0.756 | 0.77 | 0.79 | 0.812 | 0.846
313.15 K | 0.678 | 0.686 | 0.698 | 0.716 | 0.735 | 0.765
